Results as given in ChEMBL document CHEMBL1921758, “Indole alkaloids and quassinoids from the stems of Brucea mollis” (J Nat Prod, 2011).
pIC50: −log10 of the molar value.

Tests used:
Assay type in all cases: functional, cell-based
[1] = system: A2780; assay: Cytotoxicity against human A2780 cells by MTT assay
[2] = system: Bel-7402; assay: Cytotoxicity against human Bel7402 cells by MTT assay
[3] = system: A549; assay: Cytotoxicity against human A549 cells by MTT assay
[4] = Cytotoxicity against human […] cells by MTT assay
[5] = system: HCT-8; assay: Cytotoxicity against human HCT8 cells by MTT assay

SMILES	pIC50 [1]	pIC50 [2]	pIC50 [3]	pIC50 [4]	pIC50 [5]
CC(C)[C@@H](O)C(=O)c1c[nH]c2ccccc12 [BRUCEOLLINE L]	< 5.00	< 5.00	< 5.00	< 5.00	< 5.00
CC1=CC(=O)O[C@H]1[C@@]1(C)C[C@H]2OC(=O)[C@H](O)[C@H]3[C@@H](CO)[C@@H](O)[C@H](O)[C@H]1[C@]32C (relative stereo)	< 5.00	< 5.00	< 5.00	< 5.00	< 5.00
CC(C)(O)[C@@H](O)Cc1cn([C@@H]2O[C@H](CO)[C@@H](O)[C@H](O)[C@H]2O)c2ccccc12 [BRUCEOLLINE F]	< 5.00	< 5.00	< 5.00	< 5.00	< 5.00
COc1cccc2c1C(=O)c1c(O)c3c(c(O)c1C2=O)C[C@@](O)(C(=O)CO)C[C@@H]3O[C@H]1C[C@H](N)[C@H](O)[C@H](C)O1 [DOXORUBICIN]	6.48	6.28	6.14	6.01	6.38
CC1=CC(=O)[C@@H](O)[C@]2(C)[C@H]3[C@@H](O)[C@H](O)[C@H](CO)[C@@H]4[C@@H](O)C(=O)O[C@H](C[C@@H]12)[C@@]43C (relative stereo)	< 5.00	5.36	< 5.00	5.52	5.47
CC(C)(O)[C@@H](O)C[C@]1(O)C(=O)N([C@@H]2O[C@H](CO)[C@@H](O)[C@H](O)[C@H]2O)c2ccccc21 [BRUCEOLLINE N]	< 5.00	< 5.00	< 5.00	< 5.00	< 5.00
CC1(C)c2[nH]c3ccccc3c2C(=O)[C@@H]1O [BRUCEOLLINE J]	< 5.00	< 5.00	< 5.00	< 5.00	< 5.00
CC1(C)C(=O)C(=O)c2c1[nH]c1ccccc21 [BRUCEOLLINE E]	< 5.00	< 5.00	< 5.00	< 5.00	< 5.00
CC1(C)c2[nH]c3ccccc3c2C(=O)[C@@H]1O[C@@H]1O[C@H](CO)[C@@H](O)[C@H](O)[C@H]1O [BRUCEOLLINE K]	< 5.00	< 5.00	< 5.00	< 5.00	< 5.00
CC1=CC(=O)[C@@H](O)[C@]2(C)[C@H]3[C@@H](O)[C@H](O)[C@H](CO[C@@H]4O[C@H](CO)[C@@H](O)[C@H](O)[C@H]4O)[C@@H]4[C@@H](O)C(=O)O[C@H](C[C@@H]12)[C@@]43C [YADANZIOLIDE U]	< 5.00	< 5.00	< 5.00	< 5.00	< 5.00
CC(C)(O)C(=O)Cc1cn([C@@H]2O[C@H](CO)[C@@H](O)[C@H](O)[C@H]2O)c2ccccc12 [BRUCEOLLINE M]	< 5.00	< 5.00	< 5.00	< 5.00	< 5.00
CC1=CC(=O)[C@@H](O)[C@]2(C)[C@H]3[C@@H](O)[C@H](O)[C@]4(C)OC[C@@]35[C@@H](C[C@@H]12)OC(=O)[C@H](O)[C@]54O [BRUCEINE D]	< 5.00	5.45	< 5.00	5.42	5.24
CC1=CC(=O)[C@@H](O)[C@@]2(C)[C@H]1[C@@H](O)[C@H]1OC(=O)[C@H](O)[C@]3(O)[C@]14CO[C@]3(CO)[C@@H](O)[C@H](O)[C@H]24 [YADANZIOLIDE B]	< 5.00	5.37	5.42	5.31	5.48
CC1(C)C(=O)C(=O)c2c1[nH]c1cc(O)ccc21 [BRUCEOLLINE H]	< 5.00	< 5.00	< 5.00	< 5.00	< 5.00
CC1(C)c2[nH]c3cc(O)ccc3c2C(=O)[C@@H]1O [BRUCEOLLINE I]	< 5.00	< 5.00	< 5.00	< 5.00	< 5.00
